According to patent publication US9499490B2, “Fluorophenyl pyrazol compounds” (Eli Lilly and Company, priority 2013, dated 2016):

How the values were obtained:
human MetAP2 = target: T1, human MetAP2 (Homo sapiens, UniProt P50579); experiment: Enzymatic activity assay of human MetAP2 (LC/MS detection of product peptide); format: biochemical; details: full length human MetAP2, substrate 150 μM, 40 min; read-out: IC50 value for hMetAP2
T1 construct: Full length MetAP2 (human and mouse) and MetAP1 (human) proteins are generated from Sf9 cells; made in house; host or cells: Sf9 insect cells
Description: (§1) Full length MetAP2 (human and mouse) and MetAP1 (human) proteins are generated from Sf9 cells using procedure similar to that described in Biochemistry 2003, 42, 5035-5042. MetAP2 and MetAP1 are purified in the presence of 5 mM MnCl2 and 2 mM CoCl2 respectively, and stored at −78° C. before use.
(§2) Compound inhibition of the catalytic activity of human and mouse MetAP2 in the present invention is monitored by the formation of the product peptide (Gly-Lys-Val-Lys-Val-Gly-Val-Asn-Gly) from the substrate peptide (Met-Gly-Lys-Val-Lys-Val-Gly-Val-Asn-Gly) via LC/MS detection. The reaction is typically conducted by incubating the enzyme, testing compound and substrate (150 μM) in a 100 μl assay buffer (50 mM HEPES, 100 mM NaCl, 50 mg/mL BSA, 0.17 mM Triton X-100 at pH 7.5) for 40 min. After the reaction is stopped by the addition of 200 μl acetonitrile, the levels of product and remaining substrate are quantified on a mass spectrometer. The activity of human MetAP1 is monitored by the formation of the fluorescent product rhodmine-methionine from the substrate methionine-rhodamine-methionine on a spectrophotometer with the excitation light at 460 nm and emission light at 535 nm. The reaction is typically conducted by incubating the enzyme, testing compound and substrate (50 μM) in a 100 μl assay buffer (50 mM HEPES, 100 mM NaCl, 0.1% BSA, 0.05% Tween-20, 50 μM CoCl2) for 60 min. […]

mouse MetAP2 = target: T2, mouse MetAP2 (Mus musculus, UniProt O08663); experiment: Enzymatic activity assay of mouse MetAP2 (LC/MS detection of product peptide); format: biochemical; details: full length mouse MetAP2, substrate 150 μM, 40 min; read-out: IC50 value for mMetAP2
T2 construct: Full length MetAP2 (human and mouse) and MetAP1 (human) proteins are generated from Sf9 cells; made in house; host or cells: Sf9 insect cells
Description: as §1, §2

human MetAP1 = target: T3, human MetAP1 (Homo sapiens, UniProt P53582); experiment: Enzymatic activity assay of human MetAP1 (fluorescent rhodamine substrate); format: biochemical; details: full length human MetAP1, substrate 50 μM, 60 min
T3 construct: Full length MetAP2 (human and mouse) and MetAP1 (human) proteins are generated from Sf9 cells; made in house; host or cells: Sf9 insect cells
Description: as §1, §2

obese DIO mice = experiment: Therapeutic weight loss effect in high fat diet induced obese (DIO) mice; format: in vivo, mouse; details: oral 30 mg/kg twice a day
Description: To determine the therapeutic weight loss effects and improvement of metabolic parameters, compounds from the invention are tested in the high fat diet (HFD) feeding induced obese mouse model (DIO mice). In this model, C57/B16J male mouse is fed with the 60% HFD (D12492i, Research Diets) for 16˜28 weeks to establish obesity with body weight reaching around 50 g. The mice will gradually increase the body weight to about 50 g and maintain that weight in this obese state. Test compound (via the vehicle of 0.5% HEC plus 0.25% Tween-80 at 5 mL/kg) is administered orally to the obese DIO mice once or twice daily throughout the study duration. The dose-dependent weight loss of obese DIO mice for Example 1 of the oral treatment at 30 mg/kg twice a day is about 6%, 10%, and 14% weight loss compared to the vehicle group at day 7, day 14, and day 21 respectively. The data support that the compound of Example 1 is associated with desired weight loss and offers therapeutic weight loss effect.

T2 sequence (O08663 whole entry): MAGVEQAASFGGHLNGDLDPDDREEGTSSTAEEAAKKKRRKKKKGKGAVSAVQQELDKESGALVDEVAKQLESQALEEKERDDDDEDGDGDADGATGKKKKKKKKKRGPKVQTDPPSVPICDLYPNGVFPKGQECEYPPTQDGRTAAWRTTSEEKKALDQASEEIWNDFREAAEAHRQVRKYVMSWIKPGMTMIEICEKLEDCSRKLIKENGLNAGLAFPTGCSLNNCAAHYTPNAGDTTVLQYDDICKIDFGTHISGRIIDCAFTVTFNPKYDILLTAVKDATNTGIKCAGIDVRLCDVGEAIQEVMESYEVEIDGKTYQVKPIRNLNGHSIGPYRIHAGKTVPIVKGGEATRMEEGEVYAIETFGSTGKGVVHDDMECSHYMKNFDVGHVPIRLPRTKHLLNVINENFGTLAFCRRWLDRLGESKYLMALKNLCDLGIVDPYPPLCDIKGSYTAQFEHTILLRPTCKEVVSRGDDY
T1 sequence (P50579 whole entry): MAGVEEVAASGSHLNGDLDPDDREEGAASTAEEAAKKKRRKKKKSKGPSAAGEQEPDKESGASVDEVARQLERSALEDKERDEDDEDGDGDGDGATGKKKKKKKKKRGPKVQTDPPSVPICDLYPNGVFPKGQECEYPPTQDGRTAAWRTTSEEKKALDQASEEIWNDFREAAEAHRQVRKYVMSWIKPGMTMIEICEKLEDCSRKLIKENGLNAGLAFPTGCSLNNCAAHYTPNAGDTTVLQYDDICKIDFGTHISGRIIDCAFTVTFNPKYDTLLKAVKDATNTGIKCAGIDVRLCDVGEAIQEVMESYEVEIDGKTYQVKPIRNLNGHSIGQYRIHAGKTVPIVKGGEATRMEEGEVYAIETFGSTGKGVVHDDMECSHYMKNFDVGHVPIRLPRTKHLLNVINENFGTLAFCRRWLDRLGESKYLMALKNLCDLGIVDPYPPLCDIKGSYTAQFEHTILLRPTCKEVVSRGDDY

NC(=O)NCc1cccc(Oc2c[nH]nc2-c2ccc(F)cc2)c1 [Example 1, [3-[[3-(4-Fluorophenyl)-1H-pyrazol-4-yl]oxy]phenyl]methylurea]
IC50 (human MetAP2): 11 nM
IC50 (mouse MetAP2): 36 nM
IC50 (human MetAP1): > 30000 nM
weight loss compared to the vehicle group (obese DIO mice; day 7): about 6%
weight loss compared to the vehicle group (obese DIO mice; day 14): ~10%
weight loss compared to the vehicle group (obese DIO mice; day 21): ~14%
